Assay [1] concerns the target T1, Cbl-b (aa36-427) (Homo sapiens, UniProt Q13191).
T1 construct: Cbl-b (aa36-427, in-house); made in house
As to the kind of experiment: Co-expressed Cbl-b with BirA biochemical assay (CBLB/E2-Ub binding, HTRF). The text has this: (§1) The assay in the absence of a Cbl-b/Cbl inhibitor, where phosphorylation of Cbl-b/Cbl by the Src kinase allows UbcH5B-Ub to bind to Cbl-b/Cbl and brings the Bodipy-Fluorescein tagged ubiquitin in proximity to the streptavidin-terbium bound to the N-terminal biotinylated Avi-tagged Cbl-b/Cbl. […] The lack of a FRET signal indicates Cbl-b/Cbl is inhibited by the Cbl-b/Cbl inhibitor.
Background: Time-resolved FRET reads energy transfer from a long-lived donor to a nearby acceptor.

The target of assay [2] is T2, Cbl (aa49-434) (Homo sapiens, UniProt P22681).
T2 construct: Cbl (aa49-434, in-house); made in house
T2 sequence (P22681 49-434): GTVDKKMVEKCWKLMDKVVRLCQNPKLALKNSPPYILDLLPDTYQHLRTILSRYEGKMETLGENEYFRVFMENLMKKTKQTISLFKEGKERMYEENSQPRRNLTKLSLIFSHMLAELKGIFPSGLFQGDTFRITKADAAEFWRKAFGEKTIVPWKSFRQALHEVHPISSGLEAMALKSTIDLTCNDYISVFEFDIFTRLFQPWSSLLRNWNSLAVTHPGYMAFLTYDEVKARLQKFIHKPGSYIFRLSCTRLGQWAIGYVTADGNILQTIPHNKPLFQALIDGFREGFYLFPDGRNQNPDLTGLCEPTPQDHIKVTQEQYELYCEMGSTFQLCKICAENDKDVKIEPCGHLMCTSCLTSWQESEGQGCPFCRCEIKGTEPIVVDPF
As to the kind of experiment: Co-expressed Cbl with BirA biochemical assay (CBL/E2-Ub binding, HTRF). As to conditions: 0.6 nM Cbl co-expressed with BirA, read-out: co-express CBL/E2-Ub-binding assay IC50.
Description: as §1

[3] abbreviates: 0.6 nM Cbl-b co-expressed with BirA, HTRF, read-out: co-express CBLB/E2-Ub-binding assay IC50.

Read-outs that look alike come from different tables or passages of the source.

Drawing on patent publication US20250163047A1, “HETEROCYCLIC COMPOUNDS, COMPOSITIONS THEREOF, AND METHODS OF TREATMENT THEREWITH” (BeiGene, Ltd., priority 2022, published 2025), this text covers IC50 for 18 compounds.

T1 sequence (Q13191 36-427): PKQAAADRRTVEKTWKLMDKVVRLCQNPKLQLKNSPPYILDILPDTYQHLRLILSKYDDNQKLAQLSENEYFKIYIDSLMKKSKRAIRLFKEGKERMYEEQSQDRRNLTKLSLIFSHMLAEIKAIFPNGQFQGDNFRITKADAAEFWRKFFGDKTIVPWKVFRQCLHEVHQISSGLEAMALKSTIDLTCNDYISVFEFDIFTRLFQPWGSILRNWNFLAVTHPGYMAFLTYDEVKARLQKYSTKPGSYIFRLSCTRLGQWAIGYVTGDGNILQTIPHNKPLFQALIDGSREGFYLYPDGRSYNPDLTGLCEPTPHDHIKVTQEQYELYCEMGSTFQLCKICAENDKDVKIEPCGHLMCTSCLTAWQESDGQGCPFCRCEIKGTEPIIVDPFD

Take `CC(C)CNCc1cc(C(=O)Nc2cncc([C@]3(c4nncn4C)C[C@@H](C)C3)c2)nc2c(Cl)c[nH]c12` [Compound B55, 3-chloro-7-((isobutylamino)methyl)-N-(5-((1s, 3s)-3-methyl-1-(4-methyl-4H-1,2,4-triazol-3-yl)cyclobutyl)pyridin-3-yl)-1H-pyrrolo[3,2-b]pyridine-5-carboxamide]: the results for the IC50 in assay [1] and in assay [2] were 1.6 nM and 14 nM, respectively.

As for `C[C@H]1CCCN(Cc2cc(C(=O)Nc3cccc([C@]4(c5nncn5C)C[C@@H](CC#N)C4)c3)c3nc(F)cn3c2)C1` [Compound A13, N-(3-((1s,3R)-3-(cyanomethyl)-1-(4-methyl-4H-1,2,4-triazol-3-yl)cyclobutyl)phenyl)-2-fluoro-6-(((S)-3-methylpiperidin-1-yl)methyl)imidazo[1,2-a]pyridine-8-carboxamide], the IC50 in assay [1] (setting [3]) turned out to be 6.1 nM; in assay [2], 47 nM.

With `C[C@H]1CCCN(Cc2cc(C(=O)Nc3cccc([C@]4(Cc5nncn5C)C[C@H](C#N)C4)c3)nc3c2CCC3(C)C)C1` [Compound C18, N-(3-((1s,3R)-3-cyano-1-((4-methyl-4H-1,2,4-triazol-3-yl)methyl)cyclobutyl)phenyl)-7,7-dimethyl-4-(((S)-3-methylpiperidin-1-yl)methyl)-6,7-dihydro-5H-cyclopenta[b]pyridine-2-carboxamide], the IC50 in assay [1] (setting [3]) was 1.4 nM; in assay [2] it was 3.1 nM.

As for `C[C@H](NCc1cc(C(=O)Nc2cccc([C@]3(c4nncn4C)C[C@@H](CC#N)C3)c2)nc2c1NCC2(C)C)C1CC1` [Compound C27, 7-({[(1S)-1-cyclopropylethyl]amino}methyl)-3,3-dimethyl-N-{3-[(1s, 3s)-3-(cyanomethyl)-1-(4-methyl-1,2,4-triazol-3-yl)cyclobutyl]phenyl}-1H,2H-pyrrolo[3,2-b]pyridine-5-carboxamide], the figures for the IC50 in assay [1] (setting [3]) and in assay [2] were 1 nM and 3.5 nM, respectively.

`CC(C)CNCc1cc(C(=O)Nc2cncc([C@]3(c4nncn4C)C[C@@H](C)C3)c2)c2ncc(Cl)n2c1` [Compound A83, 3-chloro-6-((isobutylamino)methyl)-N-(5-((1s, 3s)-3-methyl-1-(4-methyl-4H-1,2,4-triazol-3-yl)cyclobutyl)pyridin-3-yl)imidazo[1,2-a]pyridine-8-carboxamide]: the values for the IC50 in assay [1] (setting [3]) and in assay [2] were 1 nM and 1.7 nM, respectively.

Consider `C[C@H]1CCCN(Cc2cc(C(=O)Nc3cccc([C@]4(c5nncn5C)C[C@@H](CC#N)C4)c3)nc3sccc23)C1` [Compound B18, 4-{[(3S)-3-methylpiperidin-1-yl]methyl}-N-{3-[(1s, 3s)-3-(cyanomethyl)-1-(4-methyl-1,2,4-triazol-3-yl)cyclobutyl]phenyl}thieno[2,3-b]pyridine-6-carboxamide], for which the IC50 in assay [1] (setting [3]) worked out at 1.6 nM; in assay [2], 13 nM.

Turning to `C[C@@H]1CN(Cc2cc(C(=O)Nc3cncc([C@]4(c5nncn5C)C[C@@H](C)C4)c3)nc3c2NCC3(C)C)CC[C@@H]1F` [Compound C58, 7-(((3R,4S)-4-fluoro-3-methylpiperidin-1-yl)methyl)-3,3-dimethyl-N-(5-((1s,3S)-3-methyl-1-(4-methyl-4H-1,2,4-triazol-3-yl)cyclobutyl)pyridin-3-yl)-2,3-dihydro-1H-pyrrolo[3,2-b]pyridine-5-carboxamide], the IC50 in assay [1] (setting [3]) was 1.7 nM; in assay [2] it was 3.2 nM.

For `Cn1cnnc1[C@]1(c2cccc(NC(=O)c3cc(CNCC4CCC(F)(F)CC4)c4c(n3)C(C)(C)CO4)c2)C[C@H](CC#N)C1` [Compound C20, N-(3-((1s, 3s)-3-(cyanomethyl)-1-(4-methyl-4H-1,2,4-triazol-3-yl)cyclobutyl)phenyl)-7-((((4,4-difluorocyclohexyl)methyl)amino)methyl)-3,3-dimethyl-2,3-dihydrofuro[3,2-b]pyridine-5-carboxamide], the IC50 stood at 6.9 nM in assay [1] (setting [3]) and 79 nM in assay [2].

For the compound `Cn1cnnc1[C@]1(c2cccc(NC(=O)c3cc(CNCC4CCC4)c4c(n3)C(F)(F)CC4)c2)C[C@H](C)C1` [Compound C56, 4-(((cyclobutylmethyl)amino)methyl)-7,7-difluoro-N-(3-((1s, 3s)-3-methyl-1-(4-methyl-4H-1,2,4-triazol-3-yl)cyclobutyl)phenyl)-6,7-dihydro-5H-cyclopenta[b]pyridine-2-carboxamide], the IC50 in assay [1] (setting [3]) was 0.5 nM; in assay [2] it was 2.6 nM.

In the case of `Cc1cnc2c(C(=O)Nc3cccc([C@]4(c5nncn5C)C[C@@H](CC#N)C4)c3)cc(CN3CC[C@H](F)[C@H](C)C3)cn12` [Compound A47, N-(3-((1s,3S)-3-(cyanomethyl)-1-(4-methyl-4H-1,2,4-triazol-3-yl)cyclobutyl)phenyl)-6-(((3R,4S)-4-fluoro-3-methylpiperidin-1-yl)methyl)-3-methylimidazo[1,2-a]pyridine-8-carboxamide], the IC50 in assay [1] (setting [3]) worked out at 1.4 nM; in assay [2] it was 7 nM.

Consider `Cn1cnnc1[C@]1(c2cccc(NC(=O)c3cc(CN[C@H]4CCC(F)(F)C4)cn4ccnc34)c2)C[C@H](CC#N)C1` [Compound A23, N-(3-((1s,3R)-3-(cyanomethyl)-1-(4-methyl-4H-1,2,4-triazol-3-yl)cyclobutyl)phenyl)-6-((((S)-3,3-difluorocyclopentyl)amino)methyl)imidazo[1,2-a]pyridine-8-carboxamide], for which the IC50 in assay [1] (setting [3]) amounted to 1.4 nM; in assay [2], 11.4 nM.

`Cn1cnnc1[C@]1(c2cccc(NC(=O)c3cc(CNCC4(C)CCC4)cn4ccnc34)c2)C[C@H](CC#N)C1` [Compound A30, N-(3-((1s, 3s)-3-(cyanomethyl)-1-(4-methyl-4H-1,2,4-triazol-3-yl)cyclobutyl)phenyl)-6-((((1-methylcyclobutyl)methyl)amino)methyl)imidazo[1,2-a]pyridine-8-carboxamide]: the IC50 is 0.6 nM in assay [1] (setting [3]) and 6.4 nM in assay [2].

As to `C[C@H](NCc1cc(C(=O)Nc2cccc([C@]3(c4nncn4C)C[C@@H](C)C3)c2)nc2c1OCC2(C)C)C1CC1` [Compound C35, 7-((((S)-1-cyclopropylethyl)amino)methyl)-3,3-dimethyl-N-(3-((1s,3R)-3-methyl-1-(4-methyl-4H-1,2,4-triazol-3-yl)cyclobutyl)phenyl)-2,3-dihydrofuro[3,2-b]pyridine-5-carboxamide], the IC50 amounted to 3.8 nM in assay [1] (setting [3]) and 24.4 nM in assay [2].

Consider `Cn1cnnc1[C@]1(c2cccc(NC(=O)c3cc(CNCC4CCC(F)(F)C4)c4c(n3)C(C)(C)CC4)c2)C[C@H](CC#N)C1` (stereo partly drawn) [Compound C16, N-(3-((1s, 3s)-3-(cyanomethyl)-1-(4-methyl-4H-1,2,4-triazol-3-yl)cyclobutyl)phenyl)-4-((((3,3-difluorocyclopentyl)methyl)amino)methyl)-7,7-dimethyl-6,7-dihydro-5H-cyclopenta[b]pyridine-2-carboxamide], for which the IC50 amounted to 1.7 nM in assay [1] (setting [3]) and 5.3 nM in assay [2].

Turning to `Cn1cnnc1[C@]1(c2cncc(NC(=O)c3cc(CNCC4CCC4)c4c(n3)C(C)(C)CC4)c2)C[C@H](C)C1` [Compound C29, 4-(((cyclobutylmethyl)amino)methyl)-7,7-dimethyl-N-(5-((1s, 3s)-3-methyl-1-(4-methyl-4H-1,2,4-triazol-3-yl)cyclobutyl)pyridin-3-yl)-6,7-dihydro-5H-cyclopenta[b]pyridine-2-carboxamide], the figures for the IC50 in assay [1] (setting [3]) and in assay [2] were 4.2 nM and 9.6 nM, respectively.

Regarding `Cc1cnc2c(C(=O)Nc3cccc([C@]4(c5nncn5C)C[C@@H](C)C4)c3)cc(CNCC3CCC3)cn12` [Compound A53, 6-(((cyclobutylmethyl)amino)methyl)-3-methyl-N-(3-((1s, 3s)-3-methyl-1-(4-methyl-4H-1,2,4-triazol-3-yl)cyclobutyl)phenyl)imidazo[1,2-a]pyridine-8-carboxamide], the figures for the IC50 in assay [1] (setting [3]) and in assay [2] were 2 nM and 7.7 nM, respectively.

Turning to `CC(C)CNCc1cc(C(=O)Nc2cccc([C@]3(c4nncn4C)C[C@@H](CC#N)C3)c2)nc2c1NCC2(C)C` [Compound C32, 3,3-dimethyl-7-{[(2-methylpropyl)amino]methyl}-N-{3-[(1s, 3s)-3-(cyanomethyl)-1-(4-methyl-1,2,4-triazol-3-yl)cyclobutyl]phenyl}-1H,2H-pyrrolo[3,2-b]pyridine-5-carboxamide], the IC50 came out at 1.87 nM in assay [1] (setting [3]) and 7.72 nM in assay [2].

Consider `C[C@H](NCc1cc(C(=O)Nc2cncc([C@]3(c4nncn4C)C[C@@H](C)C3)c2)nc2c1CCC2(F)F)C1CCC1` [Compound C41, 4-({[(1S)-1-cyclobutylethyl]amino}methyl)-7,7-difluoro-N-{5-[(1r, 3s)-3-methyl-1-(4-methyl-1,2,4-triazol-3-yl)cyclobutyl]pyridin-3-yl}-5H,6H-cyclopenta[b]pyridine-2-carboxamide], for which the IC50 in assay [1] (setting [3]) is 1.5 nM; in assay [2], 7 nM.
